Data reported in patent US11141452B2, “Bifunctional compounds for relief of pain comprising an opioid receptor agonist moiety and a NK1 receptor antagonist moiety and methods for treating pain” (THE ARIZONA BOARD OF REGENTS ON BEHALF OF THE UNIVERSITY OF …, priority 2014, dated 2021).
Values joined by “and” are separate entries in the source; they are usually repeats but may differ in a detail not shown here. Identical values can stand only once. Non-standard residues stand in square brackets, D forms with d. Residues, ends and D or L forms follow the SMILES beside them. *: point of attachment. NH(3,5-(CF3)2-benzyl) = FC(F)(F)c1cc(CN*)cc(C(F)(F)F)c1; Dmt = Cc1cc(O)cc(C)c1C[C@H](N)C(=O)O; NMeF = CN[C@@H](Cc1ccccc1)C(=O)O; Orn = NCCC[C@H](N)C(=O)O

What was measured:
MOR = experiment: Radioligand binding assay at μ opioid receptor; settings: for Log[IC50±] (μ): log IC50 ± error; for Ki^μ/Ki^δ: ratio of binding affinities MOR/DOR
Protocol: (§1) Binding affinities of these ligands were measured on radioligand binding assays. […] ([43]).

hNK1 = target: T1, hNK1 (Homo sapiens, UniProt P25103); experiment: hNK1/CHO cell membrane radioligand binding assay ([3H]SP); settings: for Ki^hNK1/Ki^rNK1: ratio human/rat NK1; for Ki: Ki^hNK1 (nM), hNK1/CHO membranes, [3H]SP
T1 construct: expressed in transfected cells; host or cells: CHO
T1 sequence (P25103 whole entry): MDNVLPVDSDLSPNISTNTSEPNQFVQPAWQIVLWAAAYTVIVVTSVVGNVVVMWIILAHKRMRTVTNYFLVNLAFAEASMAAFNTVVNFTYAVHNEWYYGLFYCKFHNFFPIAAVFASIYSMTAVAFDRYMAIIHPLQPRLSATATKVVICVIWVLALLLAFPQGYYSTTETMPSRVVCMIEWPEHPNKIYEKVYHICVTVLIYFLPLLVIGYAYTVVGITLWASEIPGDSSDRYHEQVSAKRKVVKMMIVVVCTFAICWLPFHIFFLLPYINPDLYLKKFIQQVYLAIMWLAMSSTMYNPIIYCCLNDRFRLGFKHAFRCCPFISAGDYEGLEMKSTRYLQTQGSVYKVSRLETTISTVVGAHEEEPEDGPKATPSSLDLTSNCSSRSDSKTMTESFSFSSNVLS

DOR = DOR (Homo sapiens, UniProt P41143); experiment: Radioligand binding assay at δ opioid receptor; settings: for Ki: Ki^δ (nM)
Sequence of DOR (P41143 whole entry): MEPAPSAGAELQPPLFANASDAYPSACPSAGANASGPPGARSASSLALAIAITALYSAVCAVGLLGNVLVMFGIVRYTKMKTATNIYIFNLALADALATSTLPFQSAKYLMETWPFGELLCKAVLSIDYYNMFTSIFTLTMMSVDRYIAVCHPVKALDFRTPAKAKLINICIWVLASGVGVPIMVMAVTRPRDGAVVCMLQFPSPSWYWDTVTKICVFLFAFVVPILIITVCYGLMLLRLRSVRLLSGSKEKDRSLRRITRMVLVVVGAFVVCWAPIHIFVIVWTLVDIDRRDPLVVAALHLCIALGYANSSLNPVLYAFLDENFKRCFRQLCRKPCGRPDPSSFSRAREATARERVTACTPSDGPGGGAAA
Protocol: as §1

## CC(C)C[C@H](NC(=O)[C@@H]1CCCN1C(=O)[C@H](CCCCN)NC(=O)[C@H](Cc1ccccc1)N(C)C(=O)CNC(=O)[C@@H](C)NC(=O)[C@@H](N)Cc1ccc(O)cc1)C(=O)N[C@@H](Cc1c[nH]c2ccccc12)C(=O)NCc1cc(C(F)(F)F)cc(C(F)(F)F)c1 [AKG174] (H-Y[dA]G[NMeF]KPLW-{NH(3,5-(CF3)2-benzyl)}; N-terminus assumed)
MOR
  Ki: 8 nM
  Log[IC50±] (μ): −7.81 ± 0.08

## Cc1cc(O)cc(C)c1C[C@H](N)C(=O)N(C)[C@H](C)C(=O)NCC(=O)N(C)[C@@H](Cc1ccccc1)C(=O)N1CCC[C@H]1C(=O)N[C@@H](CC(C)C)C(=O)N[C@@H](Cc1c[nH]c2ccccc12)C(=O)NCc1cc(C(F)(F)F)cc(C(F)(F)F)c1 [AKG184, H-Dmt-D-NMeAla-Gly-NMePhe-Pro-Leu-Trp-NH-Bn(3′,5′-(CF3)2)]
hNK1
  Ki^hNK1/Ki^rNK1: 1/40

## CC(C)C[C@H](NC(=O)[C@@H]1CCCN1C(=O)[C@H](CCC(N)=O)NC(=O)[C@H](Cc1ccc(F)cc1)NC(=O)CNC(=O)[C@@H](C)NC(=O)[C@@H](N)Cc1ccc(O)cc1)C(=O)N[C@@H](Cc1c[nH]c2ccccc12)C(=O)NCc1cc(C(F)(F)F)cc(C(F)(F)F)c1 [AKG142]
MOR
  Ki: 8 nM
  Log[IC50±] (μ): −7.67 ± 0.07
DOR
  IC50: 3.39 nM
  Ki: 2 nM

## Cc1cc(O)cc(C)c1C[C@H](N)C(=O)N[C@H](C)C(=O)N(C)CC(=O)N[C@@H](Cc1ccccc1)C(=O)N1CCC[C@H]1C(=O)N[C@@H](CC(C)C)C(=O)N[C@@H](Cc1c[nH]c2ccccc12)C(=O)NCc1cc(C(F)(F)F)cc(C(F)(F)F)c1 [AKG180, H-Dmt-D-Ala-NMeGly-Phe-Pro-Leu-Trp-NH-Bn(3′,5′-(CF3)2)]
hNK1
  Ki^hNK1/Ki^rNK1: 1/6

## Cc1cc(O)cc(C)c1C[C@H](N)C(=O)N[C@H](C)C(=O)N[C@@H](Cc1ccccc1)C(=O)NCC(=O)N[C@@H](Cc1ccc(O)cc1)C(=O)N1CCC[C@H]1C(=O)N[C@@H](CC(C)C)C(=O)N[C@@H](Cc1c[nH]c2ccccc12)C(=O)NCc1cc(C(F)(F)F)cc(C(F)(F)F)c1 [AKG118] (H-[Dmt][dA]FGYPLW-{NH(3,5-(CF3)2-benzyl)})
MOR
  Ki: 1 nM
  Log[IC50±] (μ): −8.65 ± 0.12
  Ki^μ/Ki^δ: 1/3
hNK1
  Ki^hNK1/Ki^rNK1: 1/11

## CC(C)C[C@H](NC(=O)[C@@H]1CCCN1C(=O)[C@H](CCC(N)=O)NC(=O)[C@H](Cc1ccccc1)N(C)C(=O)CNC(=O)[C@@H](C)NC(=O)[C@@H](N)Cc1ccc(O)cc1)C(=O)N[C@@H](Cc1c[nH]c2ccccc12)C(=O)NCc1cc(C(F)(F)F)cc(C(F)(F)F)c1 [AKG129]
MOR
  Ki: 7 nM
  Log[IC50±] (μ): −7.84 ± 0.11

## Cc1cc(O)cc(C)c1C[C@H](N)C(=O)N(C)[C@H](C)C(=O)N(C)CC(=O)N(C)[C@@H](Cc1ccccc1)C(=O)N1CCC[C@H]1C(=O)N[C@@H](CC(C)C)C(=O)N[C@@H](Cc1c[nH]c2ccccc12)C(=O)NCc1cc(C(F)(F)F)cc(C(F)(F)F)c1 [AKG185, H-Dmt-D-NMeAla-NMeGly-NMePhe-Pro-Leu-Trp-NH-Bn(3′,5′-(CF3)2)]
hNK1
  Ki^hNK1/Ki^rNK1: 1/21

## Cc1cc(O)cc(C)c1C[C@H](N)C(=O)N[C@H](C)C(=O)NCC(=O)N(C)[C@@H](Cc1ccccc1)C(=O)N[C@@H](CCC(N)=O)C(=O)N1CCC[C@H]1C(=O)N[C@@H](CC(C)C)C(=O)N[C@@H](Cc1c[nH]c2ccccc12)C(=O)NCc1cc(C(F)(F)F)cc(C(F)(F)F)c1 [AKG141]
hNK1
  Ki^hNK1/Ki^rNK1: 1/10

## CSCC[C@H](NC(=O)[C@H](Cc1ccccc1)N(C)C(=O)CNC(=O)[C@@H](C)NC(=O)[C@@H](N)Cc1ccc(O)cc1)C(=O)N1CCC[C@H]1C(=O)N[C@@H](CC(C)C)C(=O)N[C@@H](Cc1c[nH]c2ccccc12)C(=O)NCc1cc(C(F)(F)F)cc(C(F)(F)F)c1 [AKG106]
hNK1
  Ki^hNK1/Ki^rNK1: 1/7

## Cc1cc(O)cc(C)c1C[C@H](N)C(=O)N[C@H](C)C(=O)NCC(=O)N(C)[C@@H](Cc1ccc(F)cc1)C(=O)N[C@@H](CCC(N)=O)C(=O)N1CCC[C@H]1C(=O)N[C@@H](CC(C)C)C(=O)N[C@@H](Cc1c[nH]c2ccccc12)C(=O)NCc1cc(C(F)(F)F)cc(C(F)(F)F)c1 [AKG144]
MOR
  Ki: 0.5 nM
  Log[IC50±] (μ): −8.94 ± 0.07
DOR
  IC50: 0.437 nM
  Ki: 0.2 nM

## Cc1cc(O)cc(C)c1C[C@H](N)C(=O)N(C)[C@H](C)C(=O)NCC(=O)N[C@@H](Cc1ccccc1)C(=O)N1CCC[C@H]1C(=O)N[C@@H](CC(C)C)C(=O)N[C@@H](Cc1c[nH]c2ccccc12)C(=O)NCc1cc(C(F)(F)F)cc(C(F)(F)F)c1 [AKG181, H-Dmt-D-NMeAla-Gly-Phe-Pro-Leu-Trp-NH-Bn(3′,5′-(CF3)2)]
hNK1
  Ki^hNK1/Ki^rNK1: 1/5

## CC(C)C[C@H](NC(=O)[C@@H]1CCCN1C(=O)[C@@H](CCC(N)=O)NC(=O)[C@H](Cc1ccccc1)NC(=O)CNC(=O)[C@@H](C)NC(=O)[C@@H](N)Cc1ccc(O)cc1)C(=O)N[C@@H](Cc1c[nH]c2ccccc12)C(=O)NCc1cc(C(F)(F)F)cc(C(F)(F)F)c1 [AKG103]
MOR
  Ki: 120 nM and 116 nM
  Log[IC50±] (μ): −6.57 ± 0.05
DOR
  IC50: 155 nM
  Ki: 72 nM
hNK1
  Ki: 2.1 nM

## CC(C)C[C@H](NC(=O)[C@@H]1CCCN1C(=O)[C@H](CCC(N)=O)NC(=O)[C@H](Cc1ccc(F)cc1)N(C)C(=O)CNC(=O)[C@@H](C)NC(=O)[C@@H](N)Cc1ccc(O)cc1)C(=O)N[C@@H](Cc1c[nH]c2ccccc12)C(=O)NCc1cc(C(F)(F)F)cc(C(F)(F)F)c1 [AKG143]
MOR
  Ki: 2 nM
  Log[IC50±] (μ): −8.35 ± 0.07
DOR
  IC50: 1.45 nM
  Ki: 0.7 nM
hNK1
  Ki: 3.2 nM

## CC(C)C[C@H](NC(=O)[C@@H]1CCCN1C(=O)[C@H](Cc1ccccc1)N(C)C(=O)[C@H](Cc1ccccc1)NC(=O)[C@@H]1CCCN1C(=O)[C@@H](N)Cc1ccc(O)cc1)C(=O)N[C@@H](Cc1c[nH]c2ccccc12)C(=O)NCc1cc(C(F)(F)F)cc(C(F)(F)F)c1 [AKG224, H-Tyr-Pro-Phe-NMePhe-Pro-Leu-Trp-NH-Bn(3′,5′-(CF3)2)] (H-YPF[NMeF]PLW-{NH(3,5-(CF3)2-benzyl)})
hNK1
  Ki^hNK1/Ki^rNK1: 1/10

## CSCC[C@H](NC(=O)[C@H](Cc1ccccc1)N(C)C(=O)CNC(=O)[C@@H](C)NC(=O)[C@@H](N)Cc1c(C)cc(O)cc1C)C(=O)N1CCC[C@H]1C(=O)N[C@@H](CC(C)C)C(=O)N[C@@H](Cc1c[nH]c2ccccc12)C(=O)NCc1cc(C(F)(F)F)cc(C(F)(F)F)c1 [AKG107]
hNK1
  Ki^hNK1/Ki^rNK1: 1/7

## Cc1cc(O)cc(C)c1C[C@H](N)C(=O)N(C)[C@H](C)C(=O)N(C)CC(=O)N[C@@H](Cc1ccccc1)C(=O)N1CCC[C@H]1C(=O)N[C@@H](CC(C)C)C(=O)N[C@@H](Cc1c[nH]c2ccccc12)C(=O)NCc1cc(C(F)(F)F)cc(C(F)(F)F)c1 [AKG183, H-Dmt-D-NMeAla-NMeGly-Phe-Pro-Leu-Trp-NH-Bn(3′,5′-(CF3)2)]
hNK1
  Ki^hNK1/Ki^rNK1: 1/7

## CC(C)C[C@H](NC(=O)[C@@H]1CCCN1C(=O)[C@H](CCCN)NC(=O)[C@H](Cc1ccccc1)N(C)C(=O)CNC(=O)[C@@H](C)NC(=O)[C@@H](N)Cc1ccc(O)cc1)C(=O)N[C@@H](Cc1c[nH]c2ccccc12)C(=O)NCc1cc(C(F)(F)F)cc(C(F)(F)F)c1 [AKG173] (H-Y[dA]G[NMeF][Orn]PLW-{NH(3,5-(CF3)2-benzyl)})
MOR
  Ki: 5 nM
  Log[IC50±] (μ): −7.95 ± 0.08
  Ki^μ/Ki^δ: 100/1
DOR
  IC50: 501 nM
  binding selectivity for DOR over MOR: 100 times
  Ki: 0.05 nM
hNK1
  Ki: 15.5 nM
